Reference: publication PMC6273065, “Synthesis, Molecular Modelling and Biological Evaluation of Novel Heterodimeric, Multiple Ligands Targeting Cholinesterases and Amyloid Beta” (Molecules, 2016)

Key:
[1] = biological target: T1, EeAChE (Electrophorus electricus, UniProt O42275); assay: biochemical; format: biochemical; conditions: for EeAChE inhibitory activity in words: Ellman's assay
T1 construct: purchased Sigma–Aldrich
Experimental: (§1) Ellman’s method was used to determine the activity of the synthesized compounds against AChE from electric eel (Electrophorus electricus, EeAChE) and BuChE from equine serum (EqBuChE).
(§2) All assays were performed in 0.1 M phosphate buffer pH 8.0. The tested compounds or water in a blank sample (25 µL) were incubated with the enzyme (20 µL) for 5 min at 25 °C in buffer (765 µL) prior to starting the reaction. Then, DTNB (20 µL) and ATC (20 µL) were added. […] Each condition was measured in triplicate. The percentages of enzyme inhibition were calculated from the equation 100%—Ai/A0 × 100%, where Ai is the absorbance of a sample with an inhibitor and A0 is the absorbance of a blank sample (100% activity of the enzyme). The IC50 values were calculated using GraphPad Prism 5. Data is expressed as mean ± SEM.

[2] = biological target: T2, EqBuChE (Equus caballus, UniProt P81908); assay: biochemical
T2 construct: BuChE from equine serum (EqBuChE, Sigma–Aldrich); purchased Sigma–Aldrich; host or cells: equine serum
T2 sequence (P81908 whole entry): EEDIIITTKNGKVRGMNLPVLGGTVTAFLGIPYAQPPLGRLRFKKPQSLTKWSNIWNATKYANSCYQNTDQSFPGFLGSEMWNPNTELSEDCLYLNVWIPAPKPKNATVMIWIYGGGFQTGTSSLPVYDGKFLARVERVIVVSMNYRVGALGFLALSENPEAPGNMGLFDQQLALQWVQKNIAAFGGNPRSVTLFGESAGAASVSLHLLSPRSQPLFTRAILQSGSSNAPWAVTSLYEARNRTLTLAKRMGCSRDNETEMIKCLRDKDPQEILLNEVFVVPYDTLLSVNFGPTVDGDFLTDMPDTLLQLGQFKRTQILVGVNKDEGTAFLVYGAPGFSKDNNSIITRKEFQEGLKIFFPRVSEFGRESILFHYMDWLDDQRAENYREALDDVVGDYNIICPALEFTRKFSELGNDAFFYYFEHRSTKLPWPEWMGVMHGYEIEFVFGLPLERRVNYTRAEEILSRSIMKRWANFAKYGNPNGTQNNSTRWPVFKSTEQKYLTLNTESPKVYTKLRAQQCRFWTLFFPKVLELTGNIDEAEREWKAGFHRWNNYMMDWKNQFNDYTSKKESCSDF
Experimental: as §1, §2

[3] = PAMPA-BBB; for Prediction of BBB penetration: class from log Pe; for Log Pe: 2 h at 37 °C, means of two replicates
Experimental: For anti-Alzheimer drug candidates, the ability to cross the blood–brain barrier and to enter the central nervous system (CNS) is crucial to achieve their pharmacological target and activity.
The BBB-PAMPA Explorer Test System was purchased from pION Inc. The in vitro permeability through BBB-1 lipid membrane was determined for 7 commercial drugs and the tested compounds. The compounds were dissolved in DMSO (10 mM stock solution) and diluted with Prisma HT buffer (5 µL/1 mL). Then, the […] 96-well microplate was filled with solution of the tested compounds in buffer (200 µL/well). The filter membrane in acceptor 96-well microplate was impregnated with BBB-1 lipid solution (5 µL/well) and the acceptor plate was filled with Brain Sink Buffer (200 µL/well). The acceptor plate was carefully placed on the donor plate to form a sandwich that was left undisturbed for 2 h at 37 °C. After incubation, the donor plate was carefully removed. The concentration of compounds in the acceptor, the donor, and the reference wells were measured using EnSpire Multimode Microplate Reader (PerkinElmer).

[4] = biological target: T3, Aβ1–42 (Homo sapiens, UniProt P05067); assay: Thioflavin-T fluorometric assay of self-induced Aβ1–42 aggregation; format: biochemical; conditions: 10 µM compound, 1.5 µM Aβ1–42; mean ± SD; <10 = defined as not active; read-out: Aβ1–42 Aggreg. % of inhibition
T3 construct: Recombinant human HFIP-pretreated Aβ1–42 peptide; purchased Merck Millipore Lot number 2387442
T3 sequence (P05067 672-713): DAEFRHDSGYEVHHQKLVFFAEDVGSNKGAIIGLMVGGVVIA
Source text: Mechanisms of Aβ aggregation remain unclear. Besides the self-induced assembly of Aβ, several other factors affect its aggregation, including metal ions, AChE [45], and oxidative stress. Therefore, we evaluated our compounds using the most versatile and commonly used Aβ1–42 aggregation Thioflavin T assay. Seven structurally diverse compounds were selected (one from each subseries) to test their ability to inhibit self-induced Aβ1–42 aggregation.
Thioflavin-T (ThT) fluorometric assay was performed to investigate the effect of the test compounds on the self-aggregation of Aβ1–42. […] Each sample was prepared in quadruplicate, and the DMSO was always at 3%. To quantify amyloid fibril formation, the ThT fluorescence was measured through the bottom of the plate every 180 s at an excitation wavelength of 440 nm and emission wavelength of 490 nm, with the medium continuously shaking between measurements using a 96-well microplate reader (Synergy™ H4, BioTek Instruments, Inc., Winooski, VT, USA). […] The fluorescence intensities at the plateau in the absence and presence of the test compounds were averaged, and the average fluorescence of the corresponding wells at t = 0 h was subtracted.

T1 sequence (O42275 24-633): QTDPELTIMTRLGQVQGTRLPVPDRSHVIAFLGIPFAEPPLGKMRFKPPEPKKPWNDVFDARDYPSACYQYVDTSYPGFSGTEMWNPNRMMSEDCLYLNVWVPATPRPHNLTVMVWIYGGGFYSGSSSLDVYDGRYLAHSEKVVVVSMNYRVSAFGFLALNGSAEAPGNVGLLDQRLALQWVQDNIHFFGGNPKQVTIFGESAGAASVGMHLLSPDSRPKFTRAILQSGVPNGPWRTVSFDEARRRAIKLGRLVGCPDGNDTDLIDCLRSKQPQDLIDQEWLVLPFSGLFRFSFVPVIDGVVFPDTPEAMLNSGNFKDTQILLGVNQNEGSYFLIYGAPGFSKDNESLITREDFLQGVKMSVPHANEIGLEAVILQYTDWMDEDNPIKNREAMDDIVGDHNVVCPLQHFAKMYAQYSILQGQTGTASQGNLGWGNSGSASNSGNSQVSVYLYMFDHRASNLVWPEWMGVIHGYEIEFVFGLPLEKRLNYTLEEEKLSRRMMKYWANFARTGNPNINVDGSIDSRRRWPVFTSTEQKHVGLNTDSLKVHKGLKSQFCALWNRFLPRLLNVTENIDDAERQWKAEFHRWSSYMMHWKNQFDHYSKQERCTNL

| Compound | IC50 [1] [µM] | EeAChE inhibitory activity in words [1] | IC50 [2] [µM] | Prediction of BBB penetration [3] | Log Pe [3] | inhibition at 10 µM [4] [%] |
| --- | --- | --- | --- | --- | --- | --- |
| O=C1c2ccccc2C(=O)N1CCCCCCCCCCCCN1CCc2ccccc2C1 [Compound 15, 2-(12-(3,4-Dihydroisoquinolin-2(1H)-yl)dodecyl)isoindoline-1,3-dione] | > 50 | not active | 3.66 ± 0.085 |  |  |  |
| CCN(CC)CCCCCCN1CCc2ccccc2C1 [Compound 21, 6-(3,4-Dihydroisoquinolin-2(1H)-yl)-N,N-diethylhexan-1-amine] | > 50 |  | > 50 |  |  |  |
| CCN(CC)CCCCn1ccc2ccccc21 [Compound 31, N,N-diethyl-4-(1H-indol-1-yl)butan-1-amine] | > 50 |  | 26 ± 0.813 |  |  |  |
| O=C1c2ccccc2C(=O)N1CCCCCN1CCOCC1 [Compound 5, 2-(5-Morpholinopentyl)isoindoline-1,3-dione] | 18.1 ± 0.402 |  | > 50 |  |  |  |
| O=C1c2ccccc2C(=O)N1CCCCCCCN1CCc2ccccc2C1 [Compound 12, 2-(7-(3,4-Dihydroisoquinolin-2(1H)-yl)heptyl)isoindoline-1,3-dione] | 0.688 ± 0.017 |  | 1.17 ± 0.027 |  |  |  |
| O=C1c2ccccc2S(=O)(=O)N1CCCCCCCNCc1ccccc1F [Compound 41, 2-(7-(2-fluorobenzylamino)heptyl)benzo[d]isothiazol-3(2H)-one 1,1-dioxide] | 0.735 ± 0.009 |  | 4.97 ± 0.127 |  |  |  |
| CC(C)NCC(O)COc1cccc2ccccc12 (stereo not shown) [Propranolol, reference compound] |  |  |  | CNS+ (CNS+, log Pe > −4.5, high permeability (i.e., can enter the CNS)) |  |  |
| O=C1c2ccccc2C(=O)N1CCCCCN1CCc2ccccc2C1 [Compound 10, 2-(5-(3,4-dihydroisoquinolin-2(1H)-yl)pentyl)isoindoline-1,3-dione] | 1.266 ± 0.011 |  | 5.31 ± 0.16 |  |  |  |
| O=C1c2ccccc2S(=O)(=O)N1CCCCCNCc1ccccc1F [Compound 39, 2-(5-(2-fluorobenzylamino)pentyl)benzo[d]isothiazol-3(2H)-one 1,1-dioxide] | 0.15 ± 0.003 |  | > 50 | CNS+ (CNS+, log Pe > −4.5, high permeability (i.e., can enter the CNS)) | –4.0 | 12.3 ± 2.63 |
| CCN(CC)CCCCCn1ccc2ccccc21 [Compound 32, N,N-Diethyl-5-(1H-indol-1-yl)pentan-1-amine] | > 50 |  | 22.6 ± 0.602 |  |  |  |
| O=C1c2ccccc2C(=O)N1CCCCCCCCN1CCOCC1 [Compound 8, 2-(8-Morpholinooctyl)isoindoline-1,3-dione] | 4.5 ± 0.064 |  | > 50 |  |  |  |
| O=C1c2ccccc2C(=O)N1CCCCCCN1CCOCC1 [Compound 6, 2-(6-Morpholinohexyl)isoindoline-1,3-dione] | 17.2 ± 0.474 |  | > 50 |  |  |  |
| CC(=O)[C@H]1CC[C@H]2[C@@H]3CCC4=CC(=O)CC[C@]4(C)[C@H]3CC[C@]12C [Progesterone, reference compound] |  |  |  | CNS+ (CNS+, log Pe > −4.5, high permeability (i.e., can enter the CNS)) |  |  |
| O=C1c2ccccc2C(=O)N1CCCCCN1CCCC1 [Compound 1, 2-(5-(Pyrrolidin-1-yl)pentyl)isoindoline-1,3-dione] | 0.781 ± 0.009 |  | > 50 |  |  |  |
| O=C1c2ccccc2C(=O)N1CCCCCCCN1CCOCC1 [Compound 7, 2-(7-Morpholinoheptyl)isoindoline-1,3-dione] | 4.11 ± 0.066 |  | > 50 | CNS+ (CNS+, log Pe > −4.5, high permeability (i.e., can enter the CNS)) | –4.2 | 17.1 ± 6.13 |
| CCN(CC)CCCCCCCCn1ccc2ccccc21 [Compound 35, N,N-Diethyl-8-(1H-indol-1-yl)octan-1-amine] | 9.56 ± 0.289 |  | 3.47 ± 0.1 |  |  | 16.6 ± 2.74 |
| CCN(CC)CCCCCCCn1ccc2ccccc21 [Compound 34, N,N-Diethyl-7-(1H-indol-1-yl)heptan-1-amine] | 22.2 ± 0.424 |  | 1.47 ± 0.593 |  |  |  |
| O=C1c2ccccc2C(=O)N1CCCCCCCCN1CCc2ccccc2C1 [Compound 13, 2-(8-(3,4-Dihydroisoquinolin-2(1H)-yl)octyl)isoindoline-1,3-dione] | 0.76 ± 0.017 |  | 0.618 ± 0.009 | CNS+ (CNS+, log Pe > −4.5, high permeability (i.e., can enter the CNS)) | –4.2 | 35.8 ± 5.39 |
| O=C1c2ccccc2S(=O)(=O)N1CCCCCCNCc1ccccc1F [Compound 40, 2-(6-(2-fluorobenzylamino)hexyl)benzo[d]isothiazol-3(2H)-one 1,1-dioxide] | 1.14 ± 0.015 |  | > 50 |  |  |  |
| O=C1c2ccccc2C(=O)N1CCCCCCCCCCN1CCc2ccccc2C1 [Compound 14, 2-(10-(3,4-Dihydroisoquinolin-2(1H)-yl)decyl)isoindoline-1,3-dione] | > 50 | not active | 1.73 ± 0.038 |  |  |  |
| CCN(CC)CCCn1ccc2ccccc21 [Compound 30, N,N-diethyl-3-(1H-indol-1-yl)propan-1-amine] | > 50 |  | > 50 |  |  |  |
| O=C1c2ccccc2S(=O)(=O)N1CCCCCCNCc1cccc(Cl)c1 [Compound 43, 2-(6-(3-chlorobenzylamino)hexyl)benzo[d]isothiazol-3(2H)-one 1,1-dioxide] | 0.596 ± 0.006 |  | 6.54 ± 0.163 |  |  |  |
| CCN(CC)CCCCCN1CCc2ccccc2C1 [Compound 20, 5-(3,4-dihydroisoquinolin-2(1H)-yl)-N,N-diethylpentan-1-amine] | > 50 |  | > 50 |  |  |  |
| O=C1c2ccccc2C(=O)N1CCCCN1CCc2ccccc2C1 [Compound 9, 2-(4-(3,4-dihydroisoquinolin-2(1H)-yl)butyl)isoindoline-1,3-dione] | 5.6 ± 0.087 |  | 12.82 ± 0.107 |  |  |  |
| CCN(CC)CCCCCCCCN1CCc2ccccc2C1 [Compound 23, 8-(3,4-Dihydroisoquinolin-2(1H)-yl)-N,N-diethyloctan-1-amine] | 4.72 ± 0.149 |  | 14 ± 0.343 |  |  | < 10 |
| O=C1c2ccccc2S(=O)(=O)N1CCCCCCCNCc1cccc(Cl)c1 [Compound 44, 2-(7-(3-chlorobenzylamino)heptyl)benzo[d]isothiazol-3(2H)-one 1,1-dioxide] | 0.923 ± 0.012 |  | 2.46 ± 0.032 |  |  |  |
| O=C1c2ccccc2C(=O)N1CCCCCCN1CCCC1 [Compound 2, 2-(6-(Pyrrolidin-1-yl)hexyl)isoindoline-1,3-dione] | 0.643 ± 0.006 |  | > 50 |  |  |  |
| CCN(CC)CCCCCCCN1CCc2ccccc2C1 [Compound 22, 7-(3,4-Dihydroisoquinolin-2(1H)-yl)-N,N-diethylheptan-1-amine] | 17.3 ± 0.401 |  | 37.1 ± 0.878 |  |  |  |
| CCN(CC)CCCCCCn1ccc2ccccc21 [Compound 33, N,N-Diethyl-6-(1H-indol-1-yl)hexan-1-amine] | > 50 |  | 28.7 ± 0.723 |  |  |  |
| Cn1c(=O)c2[nH]cnc2n(C)c1=O [Theophylline, reference compound] |  |  |  |  | –6.3 |  |
